Laboratory results reported in US20250161332A1, “NON-PSYCHOACTIVE MULTI-CANNABINOID AND POLYSACCHARIDE AND POLYSACCHAROPEPTIDE-BASED THERAPEUTIC COMPOSITIONS AND METHODS OF THEIR ADMINISTRATIO” (Pebble Global Holdings, priority 2021, published 2025).

Tests used:
[1] = cited from earlier work; for circulating metabolite as percent of the parent based on plasma AUC of cannabidiol: in vivo
[2] = tested on: animal models of epilepsy; conditions: in vivo; cited from earlier work
[3] = tested on: ovarian cancer cell lines; assay: Cell viability assay (tetrazolium to formazan), 10 ovarian cancer cell lines; format: cell-based; conditions: 72 h
Text: Synergistic relationships for combinations of terpenoids and cannabinoids have been reported Russo, E. B. and J. Marcu, Chapter Three—Cannabis Pharmacology: The Usual Suspects and a Few Promising Leads, in Advances in Pharmacology, D. Kendall and S. P. H. Alexander, Editors. 2017, Academic Press. p. 67-134, the entire disclosure of which is incorporated herein by reference This observed synergy was strongly dependent on the ratio and origin of terpenoids, as shown in triple negative breast cancer models. In addition, many cannabinoids and terpenoids are immune suppressors as reported for alpha-bisabolol, which activates TGF to promote the differentiation of macrophages into the M2 phenotype (tumor promoting) and regulatory T cells. Ovarian cancer cell lines tested included A2780ip2, A2780CP20, HeyA8, HeyA8-MDR, SKOV3 and OVCAR3 and were maintained in RPMI 1640 supplemented with 10-15% fetal bovine serum and 0.1% gentamicin sulfate (available from Gemini Bioproducts, Calabasas, CA, USA). OVCAR5 cells were maintained in Dulbecco's modified Eagle's medium with 10% fetal bovine serum and 0.1% gentamicin sulfate. 1D8 murine ovarian cancer cells were maintained in Dulbecco modified
Eagle medium containing 10% fetal bovine serum (FBS), lx insulin-transferrin-selenium (available from Thermo Fisher Scientific, Waltham, MA), and 0.5% gentamicin. All above cells were cultured at 37° C. using a 5% C02 incubator. All in vitro experiments were performed with 70-80% confluent cultures and a passage number […].
Example 7. Cell viability assays. Cell viability assays were performed by testing ovarian cancer cells' metabolic ability to reduce the tetrazolium salt 3-(4,5-dimethylthiazol-2-yl)-5-(3-carboxymethoxyphenyl)-2-(4-sulfophenyl)-2H-tetrazolium (inner salt) to a formazan. […] Activities for each reagent were determined using Hill plot analyses (Graphpad Prism 8 software) to assess the half maximal effect—ICso. Results. […]

[4] = tested on: A2780 and OVCAR5; assay: Reverse Phase Protein Array (RPPA) and Ingenuity Pathway Analysis; format: cell-based; conditions: 5 μM (CBD content)
Text: Example 11. Protein Expression Level Effects. […] Results.

[5] = target: CB2 (Homo sapiens, UniProt P34972); conditions: cited from earlier work
CB2, sequence (P34972 whole entry, species assumed): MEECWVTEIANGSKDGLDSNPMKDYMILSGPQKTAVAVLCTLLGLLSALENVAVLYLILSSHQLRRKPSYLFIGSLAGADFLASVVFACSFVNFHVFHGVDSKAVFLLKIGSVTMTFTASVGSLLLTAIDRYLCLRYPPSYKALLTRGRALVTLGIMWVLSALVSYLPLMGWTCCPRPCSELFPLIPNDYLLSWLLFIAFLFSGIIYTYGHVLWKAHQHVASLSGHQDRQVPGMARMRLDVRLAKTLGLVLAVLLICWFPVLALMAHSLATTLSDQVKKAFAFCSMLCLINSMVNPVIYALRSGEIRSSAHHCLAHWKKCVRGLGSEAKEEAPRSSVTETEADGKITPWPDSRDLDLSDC

[6] = target: GPR55 (Homo sapiens, UniProt Q9Y2T6); conditions: cited from earlier work
GPR55, sequence (Q9Y2T6 whole entry, species assumed): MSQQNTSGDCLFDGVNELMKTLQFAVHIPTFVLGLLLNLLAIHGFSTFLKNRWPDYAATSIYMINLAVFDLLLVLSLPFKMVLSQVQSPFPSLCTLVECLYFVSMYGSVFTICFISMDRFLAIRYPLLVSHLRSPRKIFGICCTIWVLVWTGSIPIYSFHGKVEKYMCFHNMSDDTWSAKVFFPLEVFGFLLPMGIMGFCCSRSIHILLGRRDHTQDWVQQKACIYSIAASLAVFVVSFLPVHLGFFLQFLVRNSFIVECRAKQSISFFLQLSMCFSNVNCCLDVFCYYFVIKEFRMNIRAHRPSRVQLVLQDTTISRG

[7] = target: T1, 5 HT1A receptor (Homo sapiens, UniProt P08908); conditions: cited from earlier work
T1 sequence (P08908 1-422): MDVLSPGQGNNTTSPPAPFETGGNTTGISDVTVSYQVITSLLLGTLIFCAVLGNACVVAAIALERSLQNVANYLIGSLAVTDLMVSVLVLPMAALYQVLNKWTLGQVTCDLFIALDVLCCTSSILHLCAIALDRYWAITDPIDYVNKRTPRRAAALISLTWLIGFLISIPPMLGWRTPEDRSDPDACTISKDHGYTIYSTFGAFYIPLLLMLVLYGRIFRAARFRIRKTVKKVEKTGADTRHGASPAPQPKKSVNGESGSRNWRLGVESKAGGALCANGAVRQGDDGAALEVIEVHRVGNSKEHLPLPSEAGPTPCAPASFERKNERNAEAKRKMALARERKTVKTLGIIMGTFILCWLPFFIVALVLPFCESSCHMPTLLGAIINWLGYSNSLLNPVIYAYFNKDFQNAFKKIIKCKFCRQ

[8] = tested on: OVCAR5 Luc; assay: In vivo dose finding and efficacy study, orthotopic xenograft model for ovarian cancer; set-up: species or system nude mice
Protocol: Example 10. In vivo dose finding and efficacy study. The purpose of this study was to determine the safety and efficacy of single agent CBD and annelix in an orthotopic xenograft model for ovarian cancer. This mouse model resembles the disease of ovarian cancer in humans with development of tumor nodules in the abdominal cavity and development of ascites. Method. Luciferase transfected human ovarian tumor cells, OVCAR5 Luc (1.0 million) were injected into the peritoneal cavity of nude mice, intra peritoneally (i.p.). On day 8 after tumor cell injection IVIS® optical imaging was performed to confirm tumor establishment. […] The study was an approved protocol of the MD Anderson Cancer Center (MDACC) Institutional Animal Care and Use Committee (IACUC). […] Mice were sacrificed on day 32 (post inoculation of cells) and tumors were harvested. Body weights, tumor weight, number of tumor nodules and ascites volumes were recorded. Results: The body weights, tumor weights, tumor nodules and ascites volumes for each of the treatment groups are shown in FIG. 4. […] Control mice received corn oil injections. Body weights were not affected by either the dose of annelix (aq.), nor by the dose of CBD in this study.

[9] = tested on: ALL; conditions: cited from earlier work
[10] = tested on: normal endothelial cells; conditions: cited from earlier work
[11] = tested on: leukemia (P388), liver cancer (HepG2), skin melanoma (B16-F10), and myelogenous leukemia (K562); conditions: range over the four cell lines; cited from earlier work
[12] = tested on: B16-F10 melanoma; conditions: cited from earlier work
[13] = treatment regimens, cited from earlier work; for nausea and gastrointestinal (GI) AEs, occurrence: single agents

C=C(C)[C@@H]1C[C@H](O)C(C)=C[C@H]1c1c(O)cc(CCCCC)cc1O [6-OH-CBD, 6-hydroxy-cannabidiol]
circulating metabolite as percent of the parent based on plasma AUC of cannabidiol [1]: < 10%

C=C(C)[C@@H]1CCC(C(=O)O)=C[C@H]1c1c(O)cc(CCCCC)cc1O [7-COOH-CBD, 7-carboxy-cannabidiol]
circulating metabolite level relative to parent ([1]; higher than the parent cannabidiol): approximately 40 fold | activity [2]: inactive

C=C(C)[C@@H]1CCC(CO)=C[C@H]1c1c(O)cc(CCCCC)cc1O [7-OH-CBD, 7-hydroxy-cannabidiol]
circulating metabolite as percent of the parent based on plasma AUC of cannabidiol [1]: approximately 38% | activity [2]: equipotent and active

CCCCCc1cc(O)c2c(c1)OC(C)(CCC=C(C)C)C=C2 (stereo not drawn) [CBC, cannabichromene]
IC50 [3]: 25.9 to 49.9 µM

C=C(C)[C@@H]1CCC(C)=C[C@H]1c1c(O)cc(CCCCC)cc1O [CBD, cannabidiol]
most affected pathways versus DMSO ([4]; 8 and 24 hours): HER-2 signaling in breast cancer, PI3/AKT signaling, molecular mechanisms of cancer, systemic lupus erythematosus in B cell signaling pathway, and autophagy | most upstream regulators ([4]; 8 and 24 hours): p53, AKT, E2F1, beta-estradiol and ERBB2 | cell cycle checkpoint and DNA damage repair pathway proteins (Weel, CDC25, Rad51, chkl, ATR, ATM and p53) ([4]; compared to DMSO control): very few proteins, including ATR and CDC25, were downregulated | affinity for CB2 receptor [5]: little affinity | enzymes primarily metabolizing ([1]; liver and gut): CYP2C19, CYP3A4, and UGT1A7, UGT1A9, and UGT2B7 | mode of action at GPR55 [6]: antagonist | IC50 [3]: 7.8 to 14.7 µM | activity [2]: equipotent and active | mode of action at 5 HT1A receptor [7]: agonist | tumor burden compared to control group ([8]; 50 mg/kg i.p.): reduction in tumor burden | ascites volume ([8]; 50 mg/kg i.p., statistical significance not reached): controlled | body weights ([8]; 1, 10 and 50 mg/kg based on CBD content, i.p., 3 times per week until day 32): not affected | tolerability / adverse effects ([8]; 1, 10 and 50 mg/kg, i.p., 3 times per week until day 32): well tolerated and did not cause any adverse effects

CCCCCc1cc(O)c(C/C=C(\C)CCC=C(C)C)c(O)c1 [CBG, cannabigerol]
IC50 [3]: 17 to 35 µM

CC(C)=CCC[C@](C)(O)[C@@H]1CC=C(C)CC1 [alpha-bisabolol, (2S)-6-Methyl-2-[(1S)-4-methylcyclohex-3-en-1-yl]hept-5-en-2-ol]
IC50 [9]: 73 µM | IC50 [10]: 5 µM

CC1=CC=C(C(C)C)CC1 [alpha-terpinene, 1-Isopropyl-4-methyl-1,3-cyclohexadiene]
IC50 [11]: 60 to 180 µM

C=C1C2CCC(C2)C1(C)C (stereo not drawn) [camphene, 2,2-Dimethyl-3-methyllidenebicyclo[2.2.1]heptane]
IC50 [12]: 529 µM

N.N.[Cl][Pt][Cl] [cisplatinum]
Neuropathy and neurological symptoms, occurrence [13]: 94%

Nc1ccn([C@@H]2O[C@H](CO)[C@@H](O)C2(F)F)c(=O)n1 [gemcitabine]
nausea and gastrointestinal (GI) AEs, occurrence [13]: 69%

CC[C@@]1(O)C(=O)OCc2c1cc1n(c2=O)Cc2cc3c(CN(C)C)c(O)ccc3nc2-1 [topotecan]
nausea and gastrointestinal (GI) AEs, occurrence [13]: 63%
